Test results taken from patent publication US20060100264A1, “3,3'-Diindolylmethane immune activating compositions” (priority 2004, published 2006).
One block for each compound: values may come before it.

Assays:
IFNGR1 protein = details: previous studies (ref 27), cited from earlier work
[1] = test system: DMBA-induced mammary tumors; details: single oral dose prior to carcinogen, rats; cited from earlier work
[2] = test system: OAS-Luc reporter (promoter and 5′-flanking region of p69-OAS); assay: OAS-Luc luciferase reporter in transiently transfected MCF-7 cells; type: cell-based, human; details: 24 h treatment
Procedure: (§1) In a further experiment to examine whether the inducing effects of DIM are at the transcriptional level, the effect of DIM on activities of two luciferase reporter constructs, OAS-Luc (12) and 4GAS-Luc (13) was examined. OAS-Luc contains the promoter and 5′-flanking region (−972) of p69-OAS and GAS-Luc contains four repeats of the consensus GAS element. MCF-7 cells transiently transfected with these reporter constructs were treated with IFNγ, DIM, or a combination of both for 24 h. […] IFNγ induced transcriptional activity of this reporter in a concentration dependent manner to a maximum of about 1.8 fold, which is less than the response of the endogenous gene of about 5.0 fold. In marked contrast to the maximum effects of combined treatments of the inducers on endogenous gene expression (nearly 12-fold increase compared to vehicle treated cells), the reporter gene construct responded with less than a 3-fold increase over the controls.

[3] = test system: 4GAS-Luc reporter (four repeats of the consensus GAS element); assay: 4GAS-Luc luciferase reporter in transiently transfected MCF-7 cells; type: cell-based, human; details: DIM 50 μM, IFNγ concentration dependent, maximum
Procedure: as §1
Thus, treatment with DIM (50 μM) by itself again produced a 2 to 3-fold increase in activity of this reporter. IFNγ treatments, however, produced a robust concentration dependent increase in reporter activity to approximately 40-fold induction compared to vehicle treated controls. […]

GAS element = assay: Electrophoretic gel mobility shift assay, STAT1 binding to GAS element; type: cell-based, human; details: DIM pretreatment for various times, IFNγ 30 min
Procedure: An electrophoretic gel mobility shift assay was used to verify that the phosphorylated STAT1 was effectively activated to a dimer that could bind to the GAS element. The ^32P-labeled DNA probe containing a GAS sequence was incubated with nuclear extracts from cells pretreated with DIM for various times as indicated, and with IFNγ for 30 min. […] When samples were incubated with an antibody specific to STAT1, the band was super-shifted, confirming the identity of the protein binding to the labeled GAS probe.

MCF-7 cells [4] = assay: Cell proliferation over a 4-day treatment period; type: cell-based, human
Procedure: Functional consequences of the synergistic effects of DIM and IFNγ on gene expression were examined at the level of proliferation rates. Cell proliferation was measured over a 4-day treatment period with treatments with DIM, IFNγ, or both substances, and compared to a DMSO control. With heat-treated serum, IFNγ alone reduced cell proliferation by as much as 70% compared to controls. DIM treatments reduced proliferation by as much as 60%. […] These effects were accompanied by morphological changes characteristic of apoptosis.

MCF-7 cells [5] = assay: Flow cytometry of cell cycling (G1 phase); type: cell-based, human; details: up to 3 days; control approximately 50% in G1
Description: Flow cytometry was used to determine the effects of DIM and IFNγ on cell cycling. […] In control groups approximately 50% of the cells were in G1. Treatment with IFNγ alone caused a small progressive increase in G1 blocked cells of up to 10% above the DMSO control, after 3 days.

MHC-I complex = assay: Flow cytometry of cell surface MHC-I expression (FITC-conjugated HLA-ABC antibody); type: cell-based, human
Procedure: Induced expression of the MHC-I complex is a well-established and important down-stream target of IFNγ-mediated signal transduction. To examine further the possible synergistic effects of DIM on a significant metabolic product of IFNγ signaling, we tested the effects of co-treatment with DIM on IFNγ induced expression of MHC-I complex in MCF-7 cells.
Flow cytometry analysis of cell surface MHC-I expression was conducted using FITC-conjugated HLA-ABC antibody. In an initial control experiment, cultured MCF-7 cells were pre-treated with 30 μM DIM for 48 hours and then with or without 10 ng/mL IFNγ for another 16 hours. […] In a subsequent experiment in which cells were treated with a range of IFNγ concentrations and analyzed with the anti-MHC-I antibody, a strong signal indicative of IFNγ-induced MHC-I expression was detectable at 0.1 ng/mL and appeared to plateau at 10 ng/mL. In cells treated with vehicle control only, MHC-I expression was not detected in greater than 99% of cells.
Exposure to DIM of cells treated with 10 ng/mL of IFNγ, about 95% of which expressed MHC-I, produced a strong time dependent increase in MFV from 76.04 to 131.41. […] As expected, addition of an IFNγ blocking antibody into the medium before the treatments abrogated the inducing effects of co-treatments of IFNγ and DIM on MHC-I expression, confirming the requirement of the cytokine for the observed effects.

MHC-II = MHC-II expression in MCF-7 cells; type: cell-based, human
Description: In an analogous further experiment, we observed no effect of DIM or IFNγ on MHC-II expression in the MCF-7 cells.

[6] = test system: HLA-A, HLA-B, HLA-C, β-microtubulin, TAP1 and TAP2; assay: RT-PCR of MHC-I components and transporters in MCF-7 cells; type: cell-based, human
Description: RT-PCR was used to examine the expression of the four major components of human MHC-I, including HLA-A, HLA-B, HLA-C, and β-microtubulin, as well as two important associated transporters, TAP1 and TAP2. […] As expected, the expressions of these genes were increased 2-8 fold by treatment with IFNγ.

Compound: OCc1c[nH]c2ccccc12 [I3C, indole-3-carbinol]
IFNGR1 receptor expression increase (IFNGR1 protein; 24 hours of treatment with I3C): about 3 fold | Maximum level of IFNGR1 protein induction (IFNGR1 protein; I3C): about 7 fold | Time at which maximum IFNGR1 protein induction was reached (IFNGR1 protein; I3C): about 48 hours | Reduction of incidence and multiplicity of DMBA-induced mammary tumors [1]: 70-80%

Band-shift of 32P-labeled GAS probe with nuclear extracts (GAS element): produced a band-shift
Compound: IFNγ: Type II IFN, interferon-γ or the immune interferon, a cytokine
Maximum induction of OAS-Luc reporter [2]: about 1.8 fold | Induction of 4GAS-Luc reporter activity compared to vehicle treated controls [3]: approximately 40 fold | Reduction of cell proliferation compared to controls (MCF-7 cells [4]; 4-day treatment, heat-treated serum): ≤ 70% | Effect on proliferation of cells grown in unheated serum (MCF-7 cells [4]; unheated serum): no significant effect | Increase in G1 blocked cells above the DMSO control (MCF-7 cells [5]): up to 10% | Percentage of MHC-I positive cells (MHC-I complex; 0.1 ng/mL IFNγ, without or with 30 μM DIM pretreatment for 48 h): 8.11% | MHC-I expression/cell (MFV) (MHC-I complex; 10 ng/mL IFNγ, without or with exposure to DIM): 76.04 | Cells which expressed MHC-I (MHC-I complex; 10 ng/mL of IFNγ): about 95% | IFNγ concentration at which MHC-I signal appeared to plateau (MHC-I complex; MCF-7 cells): 10 ng/mL | IFNγ concentration at which induced MHC-I expression was detectable (MHC-I complex; MCF-7 cells): 0.1 ng/mL | Effect on MHC-II expression (MHC-II): no effect | Expression levels of the six genes (MHC-I components, TAP1, TAP2) above vehicle/background [6]: 2-8 fold
